US5164380A, “Process for preparing piroxicam/cyclodextrin complexes, the products obtained and their pharmaceutical compositions” (Chiesi Farmaceutici S.p.A., priority 1990, dated 1992)
≈ marks a conversion by molar mass, not a printed value.

Experiments:
[1] = background; cited from earlier work
[2] = Water-wettability by water contact angle analysis; assay type: physicochemical
Excerpt: Data are given relevant to water-wettability determined by water contact angle analysis, true density determined by Helium pycnometry, and surface area determined by mercury porosimetry (Table 2).

[3] = Solubilization kinetics / solubility test (oversaturation, paddle method, continuous flow cell)
Excerpt: This test, effected within a few minutes from the beginning of the solubilization process, provides data to be considered as one of the most important parameters for the biopharmaceutical evaluation of the products.

[4] = background, cited from earlier work

CN1C(C(=O)Nc2ccccn2)=C(O)c2ccccc2S1(=O)=O [piroxicam]
solubility (in words) [1]: poorly soluble in water and in biological fluids at physiological pH values
water contact angle [2]: 76 °
C max (oversaturation value) ([3]; acetate buffer pH 5.0, 500 ml, 125 rpm, 37 °C, product at least 10 times saturation quantity): 30000 ng/mL
solubility thermodynamic ([3]; acetate buffer, pH 5, aqueous buffer): 30 µg/mL (≈ 90.5 µM)
analgesic and anti-inflammatory activity (in words) [4]: considerable analgesic and anti-inflammatory activity
absorption (in words) ([4]; oral and rectal routes): slow and gradual absorption via both the oral and rectal routes
